Measured values: patent publication EP0185259A2, “Pteridines, process for their preparation, and their use as intermediates or as medicaments” (Dr. Karl Thomae GmbH, priority 1984, dated 1986)
One block for each compound: values may come before it.

Legend:
Mäusen = assay: Orientating acute toxicity in mice, single oral dose; format: in vivo; settings: observation time 14 days; for Orientierende aktute Toxizität (Tiere gestorben): single oral dose of 250 mg, animals dead of animals treated; for Orientierende aktute Toxizität: single oral dose
Text: Die orientierende akute Toxizität der zu untersuchenden Substanzen wurde orientierend an Gruppen von je […] Mäusen nach oraler Gabe einer Einzeldosis bestimmt (Beobachtungszeit: 14 Tage) : […]

[1] = test system: Phosphodiesterase (PDE) von Humanthrombozyten; assay: PDE inhibition (PDE assay), enzyme from human platelets, 3H-cAMP substrate; format: biochemical; settings: 1 µmol/l 3H-cAMP as substrate, linear regression, read-out: PDE-Hemmung (IC50 in µmol/l) Thrombozyten
Text: (§1) Beispielsweise wurden die Verbindungen • A = 4,7-Dimorpholino-6-phenyl-2-piperazino-pteridin, • B = 4-Morpholino-7-(1-oxidothiomorpholino)-2-piperazino-6-phenyl-pteridin, • C = 7-Benzylamino-6-phenyl-2-piperazino-4-thiomorpholino- pteridin, • D = 7-Dimethylamino-6-phenyl-2-piperazino-4-pyrrolidino- pteridin und • E = 7-Benzylamino-4-(N-methyl-2'-hydroxyethylamino)-2-piperazino-pteridin auf ihre Hemmwirkung auf die Phosphodiesterase (PDE) von Tumorzellen und von Humanthrombozyten in vitro in Anlehnung an die von Pöch et al. beschriebenen Methode wie folgt untersucht (siehe Naunyn-Schmiedebergs Arch. Pharmak.
(§2) Die Phosphodiesterase wurde aus B16 Melanomgewebe von Mäusen durch Zentrifugation des Gewebehomogenates bei 5.000 x g (15 min. 4°C) gewonnen. Die Homogenisation der Gewebe erfolgte durch wiederholtes Frieren/Auftauen und Homogenisation nach Potter-Elvehjem bzw. durch Ultraschall. Der die PDE enthaltende Homogenat-Überstand wurde portioniert und bei -25°C tiefgefroren.
Die Gewinnung der Phosphordiesterase aus Humanthrombozyten erfolgte in gleicher Weise.
(§3) Die Bestimmung der PDE-Hemmung durch die Prüfsubstanzen erfolgte mit 1 µmol/l ^3H-cAMP als Substrat. Die PDE-Hemmung wurde durch Messung des Abbaus des eingesetzten Substrats ^3H-cAMP zu ^3H-AMP im Vergleich zur Kontrolle ohne Prüfsubstanz erfaßt.
(§4) Das gebildete ^3H-AMP wurde durch eine Zinksulfat-Bariumhydroxid-Fällung vom verbliebenen ^3H-CAMP abgetrennt.

[2] = biological target: Phosphodiesterase aus B16 Melanomgewebe von Mäusen; assay: PDE inhibition (PDE assay), enzyme from B16 melanoma tissue, 3H-cAMP substrate; format: biochemical; settings: PDE from mouse B16 melanoma tissue; 1 µmol/l 3H-cAMP as substrate; linear regression; read-out: PDE-Hemmung (IC50 in µmol/l) B16-Tumorzellen
Text: as §1, §2, §3, §4

Structure (SMILES): c1ccc(-c2nc3c(N4CCOCC4)nc(N4CCNCC4)nc3nc2N2CCOCC2)cc1 [A, 4,7-Dimorpholino-6-phenyl-2-piperazino-pteridin]
Orientierende aktute Toxizität (Tiere gestorben) (Mäusen): 0 von 5
Orientierende aktute Toxizität (Mäusen): > 250 mg
IC50 [1]: 0.54 µmol/L
IC50 [2]: 4.3 µmol/L

Structure (SMILES): CN(CCO)c1nc(N2CCNCC2)nc2nc(NCc3ccccc3)cnc12 [E, 7-Benzylamino-4-(N-methyl-2'-hydroxyethylamino)-2-piperazino-pteridin]
Orientierende aktute Toxizität (Tiere gestorben) (Mäusen): 0 von 5
Orientierende aktute Toxizität (Mäusen): > 250 mg
IC50 [1]: 3.7 µmol/L
IC50 [2]: 8.3 µmol/L

Structure (SMILES): c1ccc(CNc2nc3nc(N4CCNCC4)nc(N4CCSCC4)c3nc2-c2ccccc2)cc1 [C, 7-Benzylamino-6-phenyl-2-piperazino-4-thiomorpholino-pteridin]
Orientierende aktute Toxizität (Tiere gestorben) (Mäusen): 0 von 5
Orientierende aktute Toxizität (Mäusen): > 250 mg
IC50 [1]: 0.5 µmol/L
IC50 [2]: 0.096 µmol/L

Structure (SMILES): CN(C)c1nc2nc(N3CCNCC3)nc(N3CCCC3)c2nc1-c1ccccc1 [D, 7-Dimethylamino-6-phenyl-2-piperazino-4-pyrrolidino-pteridin]
Orientierende aktute Toxizität (Tiere gestorben) (Mäusen): 0 von 5
Orientierende aktute Toxizität (Mäusen): > 250 mg
IC50 [1]: 3.6 µmol/L
IC50 [2]: 0.78 µmol/L

IC50 [1]: 2.2 µmol/L
IC50 [2]: 3.1 µmol/L
Structure (SMILES): [O-][S+]1CCN(c2nc3nc(N4CCNCC4)nc(N4CCOCC4)c3nc2-c2ccccc2)CC1 [B, 4-Morpholino-7-(1-oxidothiomorpholino)-2-piperazino-6-phenyl-pteridin]
